# Data: paper PMC13608006 (Journal of medicinal chemistry, 2018)
# Assays:
# CVB3-H3-C179F = assay type: cell-based, coxsackievirus B3
# PV-1 = assay type: cell-based, poliovirus-1; conditions: SI50 = CC50/EC50
# EV-A71 = test: antiviral CPE assay, anti-EV-A71 in LLC cells; assay type: cell-based, enterovirus 71 (EV-A71); conditions: SI50 = CC50/EC50
# CV-B3 (CVB3-H3) = assay type: cell-based, coxsackievirus B3; conditions: SI50 = CC50/EC50
# in vitro = conditions: human
compound,measurement,setting,value
"CC(C)n1ncc2c(C(=O)Nc3ccccc3F)cc(-c3cccs3)nc21 [JX001, N-(2-Fluorophenyl)-1-isopropyl-6-(thiophen-2-yl)-1H-pyrazolo[3,4-b]pyridine-4-carboxamide]",inhibition of CVB3-H3-C179F (missense mutation in the 2C coding domain),CVB3-H3-C179F,resistant
same,SI50 (PV-1 in HeLa cells),PV-1,SI50: 1.8
same,SI50 (EV-A71 in LLC cells),EV-A71,SI50: 21.7
same,SI50 (CV-B3 in HeLa cells),CV-B3 (CVB3-H3),SI50: 8.9
"CC(C)n1ncc2c(C(=O)Nc3cccc(C(N)=O)c3)cc(-c3cccs3)nc21 [JX064, N-(3-Carbamoylphenyl)-1-isopropyl-6-(thiophen-2-yl)-1H-pyrazolo[3,4-b]pyridine-4-carboxamide]",SI50 (PV-1 in HeLa cells),PV-1,SI50: 2.9
same,SI50 (EV-A71 in LLC cells),EV-A71,SI50: 31.3
same,SI50 (CV-B3 in HeLa cells),CV-B3 (CVB3-H3),SI50: 25.7
"CC(C)n1ncc2c(C(=O)Nc3cc(C(N)=O)ccc3F)cc(-c3cccs3)nc21 [JX073, N-(5-Carbamoyl-2-fluorophenyl)-1-isopropyl-6-(thiophen-2-yl)-1H-pyrazolo[3,4-b]pyridine-4-carboxamide]",SI50 (PV-1 in HeLa cells),PV-1,SI50: 3.8
same,SI50 (EV-A71 in LLC cells),EV-A71,SI50: 50.0
same,SI50 (CV-B3 in HeLa cells),CV-B3 (CVB3-H3),SI50: 23.5
"CC(C)n1ncc2c(C(=O)Nc3cc(S(N)(=O)=O)ccc3F)cc(-c3cccs3)nc21 [JX068, N-(2-Fluoro-5-sulfamoylphenyl)-1-isopropyl-6-(thiophen-2-yl)-1H-pyrazolo[3,4-b]pyridine-4-carboxamide]",SI50 (PV-1 in HeLa cells),PV-1,SI50: 2.9
same,SI50 (EV-A71 in LLC cells),EV-A71,SI50: 50.0
same,SI50 (CV-B3 in HeLa cells),CV-B3 (CVB3-H3),SI50: 25.7
"CC(C)n1ncc2c(C(=O)Nc3cccc(S(N)(=O)=O)c3)cc(-c3cccs3)nc21 [JX025, 1-Isopropyl-N-(3-sulfamoylphenyl)-6-(thiophen-2-yl)-1H-pyrazolo[3,4-b]pyridine-4-carboxamide]",SI50 (PV-1 in HeLa cells),PV-1,SI50: 10.0
same,SI50 (EV-A71 in LLC cells),EV-A71,SI50: 19.2
same,CC50,in vitro,> 200 µM
same,CC50,in vitro; CC50 (anti-PV-1 in HeLa cells column),50 µM
"CC(C)n1ncc2c(C(=O)Nc3cncnc3)cc(-c3cccs3)nc21 [JX066, 1-Isopropyl-N-(pyrimidin-5-yl)-6-(thiophen-2-yl)-1H-pyrazolo[3,4-b]pyridine-4-carboxamide]",SI50 (PV-1 in HeLa cells),PV-1,SI50: 1.8
same,SI50 (EV-A71 in LLC cells),EV-A71,SI50: 50.0
same,SI50 (CV-B3 in HeLa cells),CV-B3 (CVB3-H3),SI50: 25.7
